Assay results: US9945845B2, “Methods of screening using amphibians” (priority 2009, dated 2018)
Counter-ions that a name gives are not always drawn. Like-named read-outs stand apart in the source and are kept apart here.

Tested on: Xenopus embryos
Conditions: for Lethality: — = no stage of lethality given; for Type of edema Ventral: ‡ = edemas also detected in the gut; for Type of edema Periocular: * = causing bulging eyes, # = bilateral, causing narrow-set eyes
Method: 10-μl aliquots of the chemicals were transferred from the mother plates with a liquid handling robot (Aquarius, Tecan) into 96-well tissue culture plates to generate diluted stock plates (2 mM in DMSO; 50 μl final volume). […] Once embryos reached stage 31 (37 hpf), 10-μl aliquots of the diluted chemicals were added to the wells. […] Negative control wells contained embryos in screening medium and 0.1×MMR only. Embryos were treated with the chemicals in a humidified incubator at 23° C. over a timeframe of 4 days. Embryos were manually scored for the presence of edema or other morphological phenotypes using a teaching dissecting microscope (SV6; Carl Zeiss). Two investigators performed separately the scoring daily at stages 39 (56 hpf), 41 (76 hpf), 45 (98 hpf), and 47 (120 hpf). Dead embryos were removed and 100 μl of water was added daily to each well to compensate for fluid evaporation. […] For imaging at the end of the experiments. Xenopus tadpoles were anesthetized with 0.05% tricaine (Sigma #A5040) in 0.1×MMR. Images were captured using a stereomicroscope (SteREO Lumar V12; Carl Zeiss) equipped with a digital camera (AxioCam Color; Carl Zeiss).
Xenopus late tailbud embryos at stage 31 (37 hpf) were selected for compound treatment. […] Embryos were arrayed into 48-well dishes (five per well) and treated with test compounds at a concentration of 20 μM in the presence of 1% DMSO. […] All 48-well dishes also contained replicates of negative controls (1% DMSO). Embryos were monitored daily over a period of four days for edema formation. In addition, drug-induced lethality and other externally visible phenotypes were scored. On average, 320 compounds were screened per week.

[1] = compounds causing edema, 20 μM, 1% DMSO, treatment from stage 31, scored to stage 47
[2] = onset of edema, 20 μM, 1% DMSO, treatment from stage 31, Nieuwkoop & Faber stage
[3] = compounds causing cytotoxicity, 20 μM, 1% DMSO, treatment from stage 31, Nieuwkoop & Faber stage
[4] = compounds causing other phenotypic defects, 20 μM, scored to stage 47
[5] = compounds causing lethality, 20 μM, 1% DMSO, treatment from stage 31, Nieuwkoop & Faber stage
[6] = onset of pigmentation defects, 20 μM, 1% DMSO

Molecule: COc1ccc(CCCOC(Cn2ccnc2)c2ccc(OC)cc2)cc1.Cl (stereo not drawn) [SKF 96365, 1-(beta-[3-(4-Methoxyphenyl)propoxy]-4-methoxyphenethyl)-1H-imidazole hydrochloride]
- Lethality (NF) [1]: 41/42
- Type of edema Pericordial (embryonic stage): 39 embryonic stages according to Nieuwkoop and Faber (NF)
- Type of edema Proctodeal (embryonic stage): 40 embryonic stages according to Nieuwkoop and Faber (NF)
- Lethality (embryonic stage): 41/42
- Type of edema Ventral (embryonic stage): 40 embryonic stages according to Nieuwkoop and Faber (NF)

Molecule: Cl.O=C(CCCN1CCC2(CC1)C(=O)N(CCc1ccc(N=C=S)cc1)CN2c1ccccc1)c1ccc(F)cc1 [N-(p-Isothiocyanatophenethyl)spiperone hydrochloride]
- Type of edema Periocular (embryonic stage): 45 embryonic stages according to Nieuwkoop and Faber (NF)
- Type of edema Ventral (embryonic stage): 45 embryonic stages according to Nieuwkoop and Faber (NF)
- Onset (NF) [2]: 45 NF

Molecule: CCCCCCCCCCCCCCCCCC(=O)NCC(COP(=O)([O-])OCC[N+](C)(C)C)OCC (racemic) [rac-2-Ethoxy-3-octadecanamido-1-propylphospocholine]
- Lethality (NF) [3]: 32 NF

Molecule: Nc1nc2ccc(Cl)cc2c2nc(-c3ccco3)nn12 [CGS-15943, 9-Chloro-2-(2-furyl)[1,2,4]triazolo[1,5-c]quinazolin-5-amine]
- Lethality (NF) (Xenopus laevis, in vivo): 46 NF
- Onset (NF) (in vivo): 41/42

Molecule: C[C@H](NC(=O)Cc1cc(F)cc(F)c1)C(=O)N[C@H]1N=C(c2ccccc2)c2ccccc2N(C)C1=O [compound E]
- edema or other phenotype in compound-treated Xenopus embryos/tadpoles (in words) (20 μM, 1% DMSO, treatment from stage 31): potently induces edemas

Molecule: CC(C)Cc1ccc(C(C)C(=O)O)cc1 (racemic) [(±)-Ibuprofen, alpha-Methyl-4-(isobutyl)phenylacetic acid]
- Lethality (NF) (Xenopus laevis, in vivo): 45 NF

Molecule: CCCCCCCCCCCCCCCC(=O)NCC(COP(=O)([O-])OCC[N+](C)(C)C)OCC (racemic) [rac-2-Ethoxy-3-hexadecanamido-1-propylphosphocholine]
- Lethality (NF) [3]: 32 NF

Molecule: C=C[C@@]1(C)CC(=O)[C@]2(O)[C@@]3(C)[C@@H](O)CCC(C)(C)[C@@H]3[C@H](O)[C@H](OC(C)=O)[C@@]2(C)O1 [Forskolin]
- Lethality (NF) [1]: 41/42
- Type of edema Pericordial (embryonic stage): 39 embryonic stages according to Nieuwkoop and Faber (NF)
- Type of edema Proctodeal (embryonic stage): 39 embryonic stages according to Nieuwkoop and Faber (NF)
- Lethality (embryonic stage): 41/42
- Type of edema Ventral (embryonic stage): 39 embryonic stages according to Nieuwkoop and Faber (NF)
- Onset (NF) [2]: 39/40

Molecule: COC1=C(OC)C(=O)c2ccccc2C1=O [2,3-Dimethoxy-1,4-naphthoquinone]
- Lethality (NF) [4]: 42 NF

Molecule: CCCCCCCCCCCCCCCCCCOCC(COP(=O)([O-])OCC[N+](C)(C)C)OC (stereo not drawn) [ET-18-OCH3, 3,5,9-Trioxa-4-phosphaheptacosan-1-aminium]
- Lethality (NF) [5]: 37/38

Molecule: O=C(O)c1cc([N+](=O)[O-])ccc1NCCCc1ccccc1 [5-Nitro-2-(3-phenylpropylamino)benzoic acid]
- Lethality (NF) [3]: 32 NF

Molecule: CC1(C)CCC2=C(O1)c1ccccc1C(=O)C2=O [beta-Lapachone]
- Lethality (NF) [3]: 32 NF

Molecule: Cc1nc2sccn2c(=O)c1CCN1CCC(=C(c2ccc(F)cc2)c2ccc(F)cc2)CC1 [Ritanserin]
- Type of edema Pronephric (embryonic stage): 45 embryonic stages according to Nieuwkoop and Faber (NF)
- Type of edema Periocular (embryonic stage): 41/42
- Type of edema Ventral (embryonic stage): 41/42
- Onset (NF) [2]: 41/42

Molecule: COc1cc2nc(N3CCN(C(=O)OCc4ccccc4)[C@H](C(=O)NC(C)(C)C)C3)nc(N)c2cc1OC [L-765,314, (2S)-4-(4-Amino-6,7-dimethoxy-2-quinazolinyl)-2-[[(1,1-Dimethylethyl)amino]carbonyl]-1-piperazinecarboxylic acid, phenylmethyl ester]
- Type of edema Periocular (embryonic stage): 41/42 #
- Type of edema Ventral (embryonic stage): 45 embryonic stages according to Nieuwkoop and Faber (NF)
- Onset (NF) [2]: 41/42

Molecule: C[n+]1cc2c3c(ccc2c2ccc4cc5c(cc4c21)OCO5)OCO3.[Cl-] [Sanguinarine chloride, 13-Methyl-[1,3]benzodioxolo[5,6-c]-1,3-dioxolo[4,5-i]phenanthridinium chloride]
- Lethality (NF) [3]: 32 NF

Molecule: S=C(OC1CC2CC1C1CCCC21)[S][K] [D-609 potassium, Carbonodithioic acid, O-(octahydro-4,7-methano-1H-inden-5-yl) ester potassium]
- Lethality (NF) [3]: 33/34

Molecule: O=c1c2ccccc2[nH]c(=S)n1CCN1CCC(=C(c2ccc(F)cc2)c2ccc(F)cc2)CC1 [Diacylglycerol Kinase Inhibitor II]
- Type of edema Pronephric (embryonic stage): 45 embryonic stages according to Nieuwkoop and Faber (NF)
- Type of edema Periocular (embryonic stage): 46 embryonic stages according to Nieuwkoop and Faber (NF)
- Type of edema Ventral (embryonic stage): 41/42
- Onset (NF) [2]: 41/42

Molecule: C[C@]12CC[C@@H]3c4ccc(O)cc4CC[C@H]3[C@@H]1CC[C@@H]2O [beta-Estradiol]
- Type of edema Periocular (embryonic stage): 42 # embryonic stages according to Nieuwkoop and Faber (NF)
- Onset (NF) [2]: 42 NF

Molecule: CS(=O)(=O)O.Cc1c(C(=O)c2cccc3ccccc23)c2cccc3c2n1[C@H](CN1CCOCC1)CO3 [(R)-(+)-WIN 55,212-2 mesylate, (R)-(+)-[2,3-Dihydro-5-methyl-3[(morpholinyl)methyl]pyrrolo[1,2,3-de]-1,4-benzoxazinyl]-(1-naphthalenyl)methanone mesylate]
- Lethality (NF) [3]: 32 NF

Molecule: CC#CCOC(=O)c1c(C)nc2sc3c(c2c1N)CCC(O)C3 (stereo not drawn) [SB 205384, 4-Amino-7-hydroxy-2-methyl-5,6,7,8-tetrahydrobenzo[b]thieno[2,3-b]pyridine-3-carboxylic acid but-2-ynyl ester]
- Lethality (NF) [4]: 46 NF
- Onset (NF) (onset of other phenotypic defects, 20 μM, 1% DMSO): 40 NF

Molecule: CC(C)(C)c1ccc(S(=O)(=O)/C=C/C#N)cc1 [Bay 11-7085, (E)-3-(4-t-Butylphenylsulfortyl)-2-propenenitrile]
- Lethality (NF) [3]: 32 NF

Molecule: CN1CCc2cccc3c2[C@H]1Cc1ccc(O)c(O)c1-3 [Apomorphine hydrochloride hemihydrate, 10,11-Dihydroxyaporphine hydrochloride hemihydrate]
- Onset (NF) [6]: 33/34

Molecule: O=C1NCN(c2ccccc2)C12CCN(CCCC(c1ccc(F)cc1)c1ccc(F)cc1)CC2 [Fluspirilene]
- Lethality (NF) [3]: 32 NF

Molecule: CC[C@@H]1Cc2cc(O)ccc2C2=C1c1ccc(O)cc1C[C@H]2CC [(5R, 11R)-5,11-Diethyl-5,6,11,12-tetrahydro-2,8-chrysenediol]
- Lethality (NF) [5]: 41 NF

Molecule: CC(C)(Sc1ccc(CCN(CCCCC2CCCCC2)C(=O)NC2CCCCC2)cc1)C(=O)O [GW7647]
- Lethality (NF) [3]: 32 NF

Molecule: CC(=O)c1c(O)c(C)c(O)c(Cc2c(O)c3c(c(C(=O)/C=C/c4ccccc4)c2O)OC(C)(C)C=C3)c1O [Rottlerin]
- Lethality (NF) [3]: 32 NF

Molecule: Ivermectin
- Lethality (NF) [5]: 41/42

Molecule: CC(C)=CCCC(C)=CCCC(C)=CCSc1ccccc1C(=O)O [Farnesylthiosalicylic acid]
- Lethality (NF) [3]: 32 NF

Molecule: C/C(=C\c1ccc(C(=O)O)cc1)c1ccc2c(c1)C(C)(C)CCC2(C)C [TTNPB]
- Lethality (NF) [1]: 45 NF
- Type of edema Proctodeal (embryonic stage): 41/42
- Type of edema Pronephric (embryonic stage): 39 embryonic stages according to Nieuwkoop and Faber (NF)
- Type of edema Cerebral (embryonic stage, + = cerebral edema extending dorso-anteriorly and displacing the eyes): 41/42+
- Lethality (embryonic stage): 45 embryonic stages according to Nieuwkoop and Faber (NF)
- Type of edema Ventral (embryonic stage): 41/42
- Onset (NF) [2]: 39 NF

Molecule: C[C@@]12C(=O)OC(=O)[C@]1(C)[C@H]1CC[C@@H]2O1 [Cantharidin]
- Lethality (NF) [3]: 32 NF

Molecule: O=C(c1cc(O)c(O)c([N+](=O)[O-])c1)c1ccccc1F [Ro 41-0960, 2′-Fluoro-3,4-dihydroxy-5-nitrobenzophenone]
- Lethality (NF) [3]: 33/34

Molecule: COC(=O)C1=C(C)NC(C)=C(C(=O)OC)C1c1ccccc1[N+](=O)[O-] [Nifedipine]
- Type of edema Pericordial (embryonic stage): 41/42
- Type of edema Periocular (embryonic stage): 41/42
- Type of edema Ventral (embryonic stage): 45 embryonic stages according to Nieuwkoop and Faber (NF)
- Onset (NF) [2]: 41/42

Molecule: O=C1Cc2c([nH]c3ccc(Br)cc23)-c2ccccc2N1 [Kenpaullone]
- Type of edema Periocular (embryonic stage): 45 embryonic stages according to Nieuwkoop and Faber (NF)
- Type of edema Ventral (embryonic stage): 45 embryonic stages according to Nieuwkoop and Faber (NF)

Molecule: O=C(/C=C/c1ccc(O)c(O)c1)OCCc1ccccc1 [Caffeic acid phenethyl ester]
- Lethality (NF) (compounds causing pigmentation defects, 20 μM, scored to stage 47): 39 NF
- Onset (NF) [6]: 33/34

Molecule: Dequalinium analog, C-14 linker
- Lethality (NF) [3]: 32 NF

Molecule: Cc1c(CC(C)(C)C(=O)O)n(Cc2ccc(Cl)cc2)c2ccc(F)cc12 [L-655,240, 3-[1-(4-Chlorobenzyl)-5-fluoro-3-methyl-indol-2-yl]-2,2-dirriethyl propanoic acid]
- Lethality (NF) [3]: 32 NF
